System: U-87 MG
Test: Induction of apoptosis in human U-87 MG cells assessed as necrotic cells at 0.02 uM measured upto 24 hrs by Annexin V-FITC/PI staining based flow cytometry analysis (reference value: 0.62%)
Format: functional, U-87MG ATCC

CNC(=O)c1ccccc1Nc1nc(Nc2ccc(N3CCN(CCOC(=O)CCCc4ccc(N(CCCl)CCCl)cc4)CC3)cc2)ncc1C(F)(F)F
Activity: 5.5%
